Paper PMC3548707, “Biocatalytic potential of laccase-like multicopper oxidases from Aspergillus niger” (Microbial Cell Factories, 2012)
Read-outs that look alike come from different tables or passages of the source.

Columns and labels:
McoB [1] = biological target: T1, McoB; assay: initial oxidation rate at […] nm, Michaelis-Menten fit; assay type: biochemical, Aspergillus niger; conditions: substrate inhibition; second site; pH 5.0
T1 construct: secreted, homologously expressed in A. niger N593, purified from culture supernatant; theoretical ~63 kDa, ~88 kDa SDS-PAGE, ~96 kDa gel filtration; monomer; yellow

McoB [2] = test system: T1, McoB; assay: as above; assay type: biochemical, Aspergillus niger; conditions: pH 5.0; 0.125 to 15 mM substrate; fit with substrate inhibition; read-out: DMPPDA
McoG [3] = biological target: T2, McoG; assay: as above; assay type: biochemical, Aspergillus niger; conditions: substrate inhibition; second site; pH 5.0
T2 construct: secreted, homologously expressed in A. niger N593, purified from culture supernatant; theoretical ~65 kDa, ~80 kDa SDS-PAGE, ~99 kDa gel filtration; monomer; blue

McoA = test system: T3, McoA; assay: as above; assay type: biochemical, Aspergillus niger; conditions: pH 5.0; 0.125 to 15 mM substrate; read-out: DMPPDA
T3 construct: secreted, homologously expressed in A. niger N593, purified from culture supernatant; theoretical ~64 kDa, ~110 kDa SDS-PAGE, ~120 kDa gel filtration; monomer; blue

McoG [4] = test system: T2, McoG; assay: as above; assay type: biochemical, Aspergillus niger; conditions: pH 5.0; 0.125 to 15 mM substrate; fit with substrate inhibition; read-out: DMPPDA
McoG [5] = conditions: read-out: ABTS; pH 5.0; 0.125 to 15 mM substrate
McoB [6] = conditions: read-out: ABTS; pH 5.0; 0.125 to 15 mM substrate

Km (McoG [5])	Km (McoB [6])	Compound	Ki (McoB [1])	Km (McoB [2])	Ki (McoG [3])	Km (McoA)	Km (McoG [4])
–	–	CN(C)c1ccc(N)cc1 [DMPPDA]	22.4 ± 6.4 mM	400 ± 100 µM	4.6 ± 0.7 mM	3600 ± 200 µM	1800 ± 300 µM
5600 ± 1000 µM	500 ± 100 µM	CCn1c(=NN=c2sc3cc(S(=O)(=O)O)ccc3n2CC)sc2cc(S(=O)(=O)O)ccc21 [ABTS]	–	–	–	–	–
